Literature values, collected in patent publication US8475839B2 (Novartis AG, priority 2006, dated 2013).

Tests used:
[1] = not given; remark: listed apart in the source

absolute oral bioavailability | solubility in water [1] | absolute oral bioavailability, wide range (range around the about 25% value) | SMILES
64-90% | slightly soluble |  | CCOC(=O)C1=C(COCCN)NC(C)=C(C(=O)OC)C1c1ccccc1Cl (centres unmarked) [Amlodipine besylate, 3-ethyl-5-methyl-2(2-aminoethoxymethyl)-4-(2-chlrorophenyl)-1,4-dihydro-6-methyl-3,5-pyridinedicarboxylate benzenesulphonate]
60-80% |  |  | NS(=O)(=O)c1cc2c(cc1Cl)NCNS2(=O)=O [Hydrochlorothiazide]
about 25% |  | 10-35% | CCCCC(=O)N(Cc1ccc(-c2ccccc2-c2nnn[nH]2)cc1)[C@H](C(=O)O)C(C)C [valsartan, (S)-N-valeryl-N-{[2′-(1H-tetrazole-5-yl)-biphenyl-4-yl]-methyl}-valine]
